Test results from ChEMBL document CHEMBL3638719, “Carbazole and carboline kinase inhibitors” (2014).

Target: Tyrosine-protein kinase JAK2 (Homo sapiens, UniProt O60674)
Assay: Tyrosine Kinase Assay: The assays were performed in V-bottom 384-well plates. […] The reaction was initiated by the combination of JAK2 with substrates and test compounds. The reaction was incubated at room temperature for 60 min. and terminated by adding 45 ul of 35 mM EDTA to each sample. The reaction mixture was analyzed on the Caliper LABCHIP 3000 by electrophoretic separation of the fluorescent substrate and phosphorylated product.

Tyrosine-protein kinase JAK2, sequence (O60674 whole entry): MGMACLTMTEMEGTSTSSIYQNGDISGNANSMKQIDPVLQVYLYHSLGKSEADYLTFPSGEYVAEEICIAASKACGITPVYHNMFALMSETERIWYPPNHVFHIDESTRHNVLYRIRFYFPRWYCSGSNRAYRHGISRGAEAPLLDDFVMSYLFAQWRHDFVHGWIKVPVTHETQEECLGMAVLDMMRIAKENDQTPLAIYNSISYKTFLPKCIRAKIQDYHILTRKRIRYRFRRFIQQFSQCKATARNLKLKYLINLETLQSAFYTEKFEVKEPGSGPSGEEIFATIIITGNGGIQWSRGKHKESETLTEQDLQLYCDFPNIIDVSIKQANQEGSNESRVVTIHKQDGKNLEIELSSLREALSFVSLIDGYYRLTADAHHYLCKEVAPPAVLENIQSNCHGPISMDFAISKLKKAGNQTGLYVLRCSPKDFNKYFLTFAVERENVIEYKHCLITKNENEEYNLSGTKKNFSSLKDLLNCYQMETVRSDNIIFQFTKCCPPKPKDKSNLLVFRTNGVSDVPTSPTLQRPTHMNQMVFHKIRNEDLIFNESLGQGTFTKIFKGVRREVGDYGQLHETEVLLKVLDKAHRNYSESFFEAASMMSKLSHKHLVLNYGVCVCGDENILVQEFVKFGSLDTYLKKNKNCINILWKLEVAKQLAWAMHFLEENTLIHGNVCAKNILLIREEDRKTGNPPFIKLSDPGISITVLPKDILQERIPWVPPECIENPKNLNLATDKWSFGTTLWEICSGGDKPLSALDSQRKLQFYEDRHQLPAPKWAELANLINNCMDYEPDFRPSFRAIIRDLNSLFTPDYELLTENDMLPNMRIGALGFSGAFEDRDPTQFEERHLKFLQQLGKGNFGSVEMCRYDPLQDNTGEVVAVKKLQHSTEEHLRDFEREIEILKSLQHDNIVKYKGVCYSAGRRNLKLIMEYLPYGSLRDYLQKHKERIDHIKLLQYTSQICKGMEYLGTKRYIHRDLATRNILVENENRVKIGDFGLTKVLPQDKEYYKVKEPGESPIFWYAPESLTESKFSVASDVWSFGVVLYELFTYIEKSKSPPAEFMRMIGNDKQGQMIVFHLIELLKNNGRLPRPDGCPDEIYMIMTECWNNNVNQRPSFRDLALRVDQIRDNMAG

| IC50 [nM] | SMILES |
| --- | --- |
| 1 | COc1ccc(-c2cc(C(N)=O)c3[nH]c4cc(C(=O)N5CCCC(C)(O)C5)ccc4c3c2)cc1F (configuration not stated) |
| 160 | COc1cccc(-c2cc(C(N)=O)c3[nH]c4cc(NC(=O)OC(C)(C)C)ccc4c3c2)c1 |
